Key:
[1] = literature reports; cited from earlier work
[2] = test system: preferentially upregulated genes in LV, SP, LN; assay: Z-score-based differential gene expression analysis (adjuvant group- or adjuvant-associated genes, 40 module mapping, TargetMine annotation); assay type: in vivo, C57BL/6 mice; conditions: ID
In short: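 Per-sample fold-change values converted to gene-wise z-scores within each organ's data set, then triplicate z-scores summed per adjuvant. Genes with summed score >3 taken as preferentially expressed; gene groups defined by combined per-adjuvant z-score thresholds (z>1 to z>3) specific to each organ.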

Cc1ccc2c(=O)c3cccc(CC(=O)O)c3oc2c1C [DMXAA, 5,6-dimethylxanthenone-4-acetic acid]
Th response induced [1]: induces Th2 responses | z sum, 1428027_at LOC100653389 ([2]; LN, Modules 26): −2.22 | z sum, 1419721_at Niacr1 ([2]; LN, Modules 27): −1.88 | z sum, 1418424_at Tnfaip6 ([2]; LN, Modules 29): −1.91 | z sum, 1419534_at Olr1 ([2]; LN, Modules 29): −1.6 | z sum, 1421457_a_at Samsn1 ([2]; LN, Modules 29): −2.04 | z sum, 1422305_at Ifnb1 ([2]; LN, Modules 29): −1.99 | z sum, 1423028_at Ifna2 ([2]; LN, Modules 29): −2.04 | z sum, 1425837_a_at Ccrn4l ([2]; LN, Modules 29): −1.85 | z sum, 1436387_at C330006P03Rik///Homer1 ([2]; LN, Modules 29): −2.24 | z sum, 1439349_at Sbno2 ([2]; LN, Modules 29): −1.84 | z sum, 1444010_at Eif4e ([2]; LN, Modules 29): −1.94 | z sum, 1448325_at Ppp1r15a ([2]; LN, Modules 29): −1.63 | z sum, 1449311_at Bach1 ([2]; LN, Modules 29): −1.97 | z sum, 1450297_at Il6 ([2]; LN, Modules 29): −1.88 | z sum, 1455197_at Rnd1 ([2]; LN, Modules 29): −1.86 | z sum, 1455899_x_at Socs3 ([2]; LN, Modules 29): −1.79 | z sum ([2]; LN, Modules 34): −2.09 | z sum, 1417252_at Ptgs2 ([2]; LN, Modules 34): −1.55 | z sum, 1417263_at Ptgs2 ([2]; LN, Modules 34): −1.77 | z sum, 1421473_at Il1a ([2]; LN, Modules 34): −1.71 | z sum, 1439981_at Tespa1 ([2]; LN, Modules 35): −1.8 | z sum, 1441843_s_at 5230400M03Rik ([2]; LN, Modules 35): −2.25 | z sum, 1442556_at --- ([2]; LN, Modules 35): −2.03 | z sum, 1443414_at C78513 ([2]; LN, Modules 35): −2.02 | z sum, 1444598_at --- ([2]; LN, Modules 35): −2 | z sum, 1445534_at --- ([2]; LN, Modules 35): −2 | z sum, 1446245_at --- ([2]; LN, Modules 35): −2.34 | z sum, 1457944_at --- ([2]; LN, Modules 35): −2.16 | z sum, 1458376_at B930025B16Rik ([2]; LN, Modules 35): −2.11 | z sum, 1459144_at --- ([2]; LN, Modules 35): −2.06 | z sum, 1425687_at Cflar ([2]; LN, Modules 36): −1.76 | z sum, 1427736_a_at Ccrl2 ([2]; LN, Modules 36): −2.22 | z sum, 1449169_at Has2 ([2]; LN, Modules 36): −2.25 | z sum, 1453636_at Pcgf5 ([2]; LN, Modules 36): −2.11 | z sum, 1457888_at --- ([2]; LN, Modules 36): −2.02 | z sum, 1419508_at Ripk1 ([2]; LN, Modules 37): −2.04 | z sum, 1421578_at Ccl4 ([2]; LN, Modules 37): −1.85 | z sum, 1421679_a_at Cdkn1a ([2]; LN, Modules 37): −1.99 | z sum, 1424638_at Cdkn1a ([2]; LN, Modules 37): −1.71 | z sum, 1433508_at Klf6 ([2]; LN, Modules 37): −1.54 | z sum, 1434350_at Csrnp1 ([2]; LN, Modules 37): −1.99 | z sum, 1439680_at Tnfsf10 ([2]; LN, Modules 37): −2.27 | z sum, 1448724_at Cish ([2]; LN, Modules 37): −1.56 | z sum, 1451340_at Arid5a ([2]; LN, Modules 37): −2.28 | z sum, 1453851_a_at Gadd45g ([2]; LN, Modules 37): −2 | z sum, 1457404_at Nfkbiz ([2]; LN, Modules 37): −2.06 | z sum, 1458589_at --- ([2]; LN, Modules 37): −1.59 | z sum, 1422054_a_at 5kil ([2]; LN, Modules 40): −1.69 | z sum, 1428735_at Cd69 ([2]; LN, Modules 40): −2.42 | Adar 1425405_a_at (Group G1, Modules 20) ([2]; LV, sample x1): 2.03 | Adar 1434268_at (Group G1, Modules 20) ([2]; LV, sample x1): 2.15 | Ddx58 1436562_at (Group G1, Modules 20) ([2]; LV, sample x1): 2.07 | Ddx58 1456890_at (Group G1, Modules 20) ([2]; LV, sample x1): 1.67 | Eif2ak2 1422005_at (Group G1, Modules 20) ([2]; LV, sample x1): 1.36 | G3bp2 1421323_a_at (Group G1, Modules 20) ([2]; LV, sample x1): 1.32 | Gm9706///Isg15 1431591_s_at (Group G1, Modules 20) ([2]; LV, sample x1): 1.28 | H2-T10///H2-T22///H2-T9 1449875_s_at (Group G1, Modules 20) ([2]; LV, sample x1): 1.27 | Ifih1 1426276_at (Group G1, Modules 20) ([2]; LV, sample x1): 1.25 | Ifit1 1450783_at (Group G1, Modules 20) ([2]; LV, sample x1): 2.21 | Ifit3 1449025_at (Group G1, Modules 20) ([2]; LV, sample x1): 1.39 | Irf7 1417244_a_at (Group G1, Modules 20) ([2]; LV, sample x1): 1.05 | Irgm1 1418825_at (Group G1, Modules 20) ([2]; LV, sample x1): 1.39 | Mndal 1426906_at (Group G1, Modules 20) ([2]; LV, sample x1): 1.42 | Pml 1448757_at (Group G1, Modules 20) ([2]; LV, sample x1): 1.62 | Pml 1456103_at (Group G1, Modules 20) ([2]; LV, sample x1): 2.18 | Rnf213 1455500_at (Group G1, Modules 20) ([2]; LV, sample x1): 1.79 | Rsad2 1436058_at (Group G1, Modules 20) ([2]; LV, sample x1): 1.56 | Shisa5 1423986_a_at (Group G1, Modules 20) ([2]; LV, sample x1): 2.03

Source: patent publication US20230021483A1, “[…] […] METHOD AND CLASSIFICATION OF PHARMACEUTICAL COMPONENTS BY USING TRANSCRIPTOMES” (National Institutes of Biomedical Innovation, Health and …, priority 2016, published 2023)
